The record followed here is patent US11578040B2, “[5]Helicene derivatives as molecular reporters for diagnostic applications and methods of synthesis therefor” (NATIONAL SCIENCE AND TECHNOLOGY DEVELOPMENT AGENCY, priority 2016, dated 2023).

The subject of one data set is antigen. Nature of the data set: Testing of binding reactivity of antibody after conjugation with molecular reporter on 96-well plates (HRP-labeled anti-mouse antibody, signal at 450 nm). The conditions noted are these: 2 μg/mL conjugated antibody, antigen-coated 96-well plate. The procedure: The binding reactivity of antibody conjugating molecular reporter (compound 6, compound 8, and compound 14) to antigen could be tested with an immobilization of antigen on wells of 96-well plates. The molecular reporter conjugated antibody was added into the wells. The antibody would bind to the antigen coating wells. Horseradish peroxidase labeled antibody specific to mouse antibody was used as a reporter molecule for reporting binding reactivity. The results of molecular reporter conjugated antibody were compared with results of antibody without molecular reporter conjugation.
The method for testing binding reactivity of molecular reporter conjugated antibody and antigen in 96-well plate consists of the following steps. • a) Prepare 2 μg/mL of antigen in carbonate buffer containing 50 mM carbonate, pH 9.6, and immobilize antigen (100 μL/well) in 96-well plate. • b) Incubate 96-well plate in step 1 at 4° C. for 12-16 hours. • c) Block non-specific binding with 300 μL/well of 2% bovine serum albumin in phosphate-buffered saline containing 0.05% Tween (PBST), and incubate at room temperature for 1 hour. • d) Wash 96-well plates in step 3 with 300 μL/well of PBST for 3 times. • e) Add 100 μL/ well of 2 μg/mL of antibody conjugating molecular reporter (compound 6, compound 8, and compound 14), and incubate at room temperature for 1 hour. • f) Wash 96-well plates in step 5 with 300 μL/well of PBST for 3 times. • g) Add 100 μL/well of horseradish peroxidase labeled antibody specific to mouse antibody (dilution at 1:10,000), and incubate at room temperature for 1 hour. • h) Wash 96-well plates in step 7 with 300 μL/well of PBST for 3 times. • i) Add 100 μL/well of substrate solution for horseradish peroxidase which is 3,3′,5,5′-Tetramethylbenzidine, and incubate at room temperature for 30 minutes. • j) Add 50 μL/well of sulfuric acid (H2SO4) for stop reaction. • k) Measure signals at 450 nm.

Broadly, the melting point is the temperature, or range, at which the solid turns liquid.

For the compound `N#Cc1c(C#N)c2ccc3cc(OCCCCCC(=O)O)ccc3c2c2c1ccc1cc(OCCCCCC(=O)O)ccc12` [compound 6, 6,6′-((3,4-dicyanodibenzo[c,g]phenanthrene-8,13-diyl)bis(oxy))dihexanoic acid], in the data set on antigen, the “binding of antibody conjugating molecular reporter to antigen (FIG. 5)” value is reported as “antibody could bind to antigen” and the “effect of molecular reporter on binding reactivity of antibody compared with antibody without any conjugation (FIG. 5)” value is on record as “did not affect the binding reactivity of antibody”.
Compound `N#Cc1c(C#N)c2c(c3c1CCc1cc(OCCCCCC=O)ccc1-3)-c1ccc(OCCCCCC=O)cc1CC2` [compound 8, 8,13-bis((6-oxohexyl)oxy)-1,2,5,6-tetrahydrodibenzo[c,g]phenanthrene-3,4-dicarbonitrile] returned a melting point of 135 to 139 °C. In the data set with antigen, the “binding of antibody conjugating molecular reporter to antigen (FIG. 5)” value is recorded as “antibody could bind to antigen” and the “effect of molecular reporter on binding reactivity of antibody compared with antibody without any conjugation (FIG. 5)” value is “did not affect the binding reactivity of antibody”.
